Measurements taken from patent US10239889B1, “Pentacyclic compound” (Eisai R&D Management Co., Ltd., priority 2017, dated 2019).

How the values were obtained:
[1] = tested on: rat primary septal neuron culture; assay: Measurement of acetylcholine (ACh) release in the rat primary septal neuron culture system in the presence of NGF; type: cell-based; conditions: rat primary septal neurons, with NGF, one day after compound addition, ACh by HPLC
Description: Measurement of acetylcholine (ACh) release in the rat primary septal neuron culture system in the presence of NGF
(1) Rat Primary Septal Neuron Culture
The septal area was isolated from Sprague-Dawley (SD) rats (Charles River Laboratories Japan, Inc.) at a fetal age of 18 days, and cultured.
Specifically, fetuses were aseptically removed from pregnant rats under isoflurane anesthesia. The brain was extracted from each fetus, and immersed in ice-cooled L-15 medium (11415-064, Thermo Fisher Scientific). The septal area was dissected from the extracted brain under a stereoscopic microscope. The dissected septal area was subjected to enzyme treatment in an enzyme solution containing 0.25% trypsin (15050-065, Thermo Fisher Scientific) and 0.01% DNase (D5025-150KU, Sigma) at 37° C. for 30 minutes, thereby dispersing the cells. In this case, the enzyme reaction was terminated by adding inactivated horse serum (26050-088, Thermo Fisher Scientific). The enzyme-treated solution was centrifuged at 1000 rpm for 3 minutes, and the supernatant was removed. A medium in an amount of 10 mL was added to the obtained cell mass. The medium used was Dulbecco's Modified Eagle's Medium (044-29765, WAKO) supplemented with N2 supplement (17502-048, Thermo Fisher Scientific), 1 mM sodium pyruvate (11360-070, Thermo Fisher Scientific), and Penicillin-Streptomycin (15140-1221, Thermo Fisher Scientific). The cells of the cell mass to which the medium was added were redispersed by gentle pipetting, and then centrifuged again at 1000 rpm for 3 minutes, and the supernatant was removed. The medium in an amount of 10 mL was added to the obtained cell mass, and the cell dispersion was filtered through a 40-μm nylon mesh (Cell Strainer) to remove the cell mass, thereby obtaining a neuronal cell suspension. The neuronal cell suspension was diluted with the medium, and 10% inactivated bovine serum (26140-079, Thermo Fisher Scientific) and 10% inactivated horse serum were added. Thereafter, 100 μL/well of the suspension was seeded in a 96-well plate (354461, CORNING) pre-coated with poly-D-lysine so that the initial culture density was 1.4×10^5 cells/cm^2. After the seeded cells were cultured under 5% CO2-95% air in a 37° C. incubator for 2 days, the entire medium was replaced with 120 μL of fresh medium, and the cells were subsequently cultured for 5 days.
On the 7th day of culture, compound was added in the following manner. A solution of the test compound in DMSO was diluted with the medium so that the concentration was 10 times higher than the final concentration. NGF (450-01, PEPRO TECH, INC.) was prepared at 0.3 ng/mL. These two solutions were added each in an amount of 15 μL/well, and the mixture was mixed well. The final DMSO concentration was 0.1% or less. Moreover, only DMSO and NGF were added to the control group.
(3) ACh Release Measurement
One day after compound addition, an amount of ACh release was measured by HPLC in the following manner. A warmed buffer was added at 100 μL/well to the well after the medium was eliminated, and the buffer was immediately removed. Thereafter, a buffer to which 10 μm choline, 10 μm physostigmine, and 6 mM KCl were added was added at 120 μL/well. The buffer was prepared by adding 125 mM NaCl, 25 mM 4-(2-hydroxyethyl)-1-piperazineethanesulfonic acid, 1.2 mM KH2PO4, 1.2 mM MgSO4, 2.2 mM CaCl2 (2H2O), and 10 mM glucose to sterilized water, and the final pH of the solution was set to 7.4. After the 96-well plate to which the buffer was added was incubated under 5% CO2-95% air in a 37° C. incubator for 40 minutes, 80 μL of buffer was collected. An internal standard solution IPHC (5×10^−7 M) was added in an amount of 6 μL to the collected buffer, and the buffer was transferred to a tube for HPLC measurement and subjected to HPLC measurement. […]

[2] = tested on: Choline Acetyltransferase (ChAT) mRNA; assay: Measurement of choline acetyltransferase (ChAT) mRNA expression levels in the rat septal area; type: in vivo; conditions: SD rat medial septum, oral 10 mg/kg, 24 hours after administration, qPCR
Method: Measurement of Choline Acetyltransferase (ChAT) mRNA Expression Levels in the Rat Septal Area
(1) Compound Administration
In this study, SD male rats (Charles River Laboratories Japan, Inc.) with a body weight of about 250 to 350 g were used. The compound was dissolved in 0.01 mol/L hydrochloric acid, and orally administered.
At 24 hours after the administration of the compound, the whole brain tissue was collected under pentobarbital anesthesia. The medial septum was isolated from whole brain on ice and frozen with liquid nitrogen, and then stored at −80° C.
(3) Measurement of ChAT mRNA Expression Levels
For RNA purification, RNeasy Plus Mini Kit (#74136: QIAGEN) was used in this study. RNA purification was performed by the method described in the kit. After RNA purification, the total RNA concentration was measured by using QIAxpert Instrument (QIAGEN). cDNA was synthesized using SuperScript® VILO™ cDNA Synthesis Kit (#11754: Thermo Fisher Scientific). The synthesis of cDNA was performed by the method described in the kit. The synthesized cDNA was diluted 4 times with RNase free water, and the diluted cDNA solution was used as a sample. Taqman Universal PCR Master Mix (#4304437: Thermo Fisher Scientific), Taqman® Gene Expression Assays, INVENTORIED (#4331182: Thermo Fisher Scientific), RNase free water, and the cDNA solution were mixed in amounts of 10 μl, 1 μl, 4 μl, and 5 μl, respectively, and the resulting mixture was used as a measurement sample solution. Quantitative polymerase chain reaction (qPCR) was conducted using ABI PRISM® 7900HT (Thermo Fisher Scientific) by a fluorescence probe method. Analysis was performed by SDS 2.4 (Thermo Fisher Scientific). The results were calculated by the percentage of the amount of ChAT mRNA expression levels in the compound administration group increased from the amount of ChAT mRNA expression levels in the vehicle administration group.

## CN1CCc2c(sc3nc4n(c(=O)c23)-c2sccc2C(=O)N(C)C4)C1 [Example 3, 5,10-dimethyl-5,6,9,10,11,12-hexahydropyrido[4″,3″:4′,5′]thieno[2′,3′:4,5]pyrimido[1,2-a]thieno[3,2-f][1,4]diazepine-4,13-dione]
[1]
  Concentration (μM) showing a 20% or more increase from the amount of ACh in the control group: 0.1 µM
[2]
  Amount (%) increased from the amount of ChAT mRNA expression levels in the vehicle administration group: 56.4%

## CN1CCc2c(sc3nc4n(c(=O)c23)-c2ccc(F)cc2C(=O)N(C)C4)C1 [Example 1]
[1]
  Concentration (μM) showing a 20% or more increase from the amount of ACh in the control group: 0.1 µM
[2]
  Amount (%) increased from the amount of ChAT mRNA expression levels in the vehicle administration group: 73.3%
